Tested on: MV-4-11 cells
Experiment: Gene expression microarray analysis (Affymetrix PrimeView) and GSEA
Type: cell-based, human
Design: RFU PODN (11730768_x_at) / Fold change /veh PODN (11730768_x_at) / RFU LINC00158 (11744669_a_at) / Fold change /veh LINC00158 (11744669_a_at) / RFU DUSP10 (11751237_a_at) / Fold change /veh DUSP10 (11751237_a_at) / RFU ID3 (11757404_x_at) / Fold change /veh ID3 (11757404_x_at) / RFU PLEKHG5 (11737974_s_at) / Fold change /veh PLEKHG5 (11737974_s_at) / RFU LRRC4B (11730491_at) / Fold change /veh LRRC4B (11730491_at) / RFU GIMAP4 (11747438_a_at) / Fold change /veh GIMAP4 (11747438_a_at) / RFU KRT8 (11758183_x_at) / Fold change /veh KRT8 (11758183_x_at) / RFU CNN1 (11734310_a_at) / Fold change /veh CNN1 (11734310_a_at) / RFU VPS37D (11726825_at) / Fold change /veh VPS37D (11726825_at) / RFU C10orf10 (11716522_x_at) / Fold change /veh C10orf10 (11716522_x_at) / RFU KIR2DL2 /// KIR2DL4 /// KIR2DL5A /// KIR2DL5B /// KIR2DS1 /// KIR2DS2 /// KIR2DS3 /// KIR2DS4 /// KIR3DL3 /// KIR3DL3 /// KIR3DS1 (11738374_at) / Fold change /veh KIR2DL2 /// KIR2DL4 /// KIR2DL5A /// KIR2DL5B /// KIR2DS1 /// KIR2DS2 /// KIR2DS3 /// KIR2DS4 /// KIR3DL3 /// KIR3DL3 /// KIR3DS1 (11738374_at) / RFU C1QL1 (11718748_at) / Fold change /veh C1QL1 (11718748_at) / RFU TMPRSS4 (11747572_a_at) / Fold change /veh TMPRSS4 (11747572_a_at) / RFU HAMP (11756126_x_at) / Fold change /veh HAMP (11756126_x_at) / RFU RNFT2 (11725882_a_at) / Fold change /veh RNFT2 (11725882_a_at) / RFU NR4A2 (11747474_a_at) / Fold change /veh NR4A2 (11747474_a_at) / RFU ABCC12 (11746883_a_at) / Fold change /veh ABCC12 (11746883_a_at) / RFU TMEM136 (11760407_x_at) / Fold change /veh TMEM136 (11760407_x_at) / RFU CLDN22 /// WWC2 (11732394_at) / Fold change /veh CLDN22 /// WWC2 (11732394_at) / RFU HLA-DPB1 (11760878_x_at) / Fold change /veh HLA-DPB1 (11760878_x_at) / RFU SPINT1 (11716480_a_at) / Fold change /veh SPINT1 (11716480_a_at) / RFU GAP43 (11754022_s_at) / Fold change /veh GAP43 (11754022_s_at) / RFU A4GNT (11735810_at) / Fold change /veh A4GNT (11735810_at) / RFU PRB3 (11715151_x_at) / Fold change /veh PRB3 (11715151_x_at) / RFU TUBB4B (11761932_at) / Fold change /veh TUBB4B (11761932_at) / RFU CAPN14 (11732068_a_at) / Fold change /veh CAPN14 (11732068_a_at) / RFU TMCC2 (11721928_a_at) / Fold change /veh TMCC2 (11721928_a_at) / RFU IRGQ (11745062_a_at) / Fold change /veh IRGQ (11745062_a_at) / RFU FAM174B (11720279_a_at) / Fold change /veh FAM174B (11720279_a_at) / RFU TMPRSS4 (11748680_a_at) / Fold change /veh TMPRSS4 (11748680_a_at) / RFU FAM212B (11763350_a_at) / Fold change /veh FAM212B (11763350_a_at) / RFU PLEKHG5 (11743358_a_at) / Fold change /veh PLEKHG5 (11743358_a_at) / RFU ZSCAN30 (11745921_a_at) / Fold change /veh ZSCAN30 (11745921_a_at) / RFU CMKLR1 (11741424_a_at) / Fold change /veh CMKLR1 (11741424_a_at) / RFU LOC101060620 /// MAPK8IP1 (11723275_at) / Fold change /veh LOC101060620 /// MAPK8IP1 (11723275_at) / RFU SPTSSB (11747773_x_at) / Fold change /veh SPTSSB (11747773_x_at) / RFU PRSS12 (11739890_at) / Fold change /veh PRSS12 (11739890_at) / RFU BIN1 (11741810_x_at) / Fold change /veh BIN1 (11741810_x_at) / RFU WNT11 (11732464_a_at) / Fold change /veh WNT11 (11732464_a_at) / RFU C10orf10 (11716521_a_at) / Fold change /veh C10orf10 (11716521_a_at) / RFU C5orf56 (11738089_at) / Fold change /veh C5orf56 (11738089_at) / RFU CYB561 (11721691_x_at) / Fold change /veh CYB561 (11721691_x_at) / RFU ANKRD19P (11752326_a_at) / Fold change /veh ANKRD19P (11752326_a_at) / RFU OR2T12 /// OR2T33 /// OR2T8 (11738714_s_at) / Fold change /veh OR2T12 /// OR2T33 /// OR2T8 (11738714_s_at) / RFU VCAN (11748164_a_at) / Fold change /veh VCAN (11748164_a_at) / RFU JSRP1 (11732532_at) / Fold change /veh JSRP1 (11732532_at) / RFU KRTAP10-11 (11738290_x_at) / Fold change /veh KRTAP10-11 (11738290_x_at) / RFU MYO3A (11730013_a_at) / Fold change /veh MYO3A (11730013_a_at) / RFU EBF3 (11725865_a_at) / Fold change /veh EBF3 (11725865_a_at) / RFU CAMK2N1 (11719241_x_at) / Fold change /veh CAMK2N1 (11719241_x_at) / RFU C5orf56 (11738088_a_at) / Fold change /veh C5orf56 (11738088_a_at) / RFU OLFML3 (11715873_a_at) / Fold change /veh OLFML3 (11715873_a_at) / RFU LOC100653217 /// NTM (11731650_a_at) / Fold change /veh LOC100653217 /// NTM (11731650_a_at) / RFU MAPK11 (11762145_a_at) / Fold change /veh MAPK11 (11762145_a_at) / RFU FIZ1 (11724087_x_at) / Fold change /veh FIZ1 (11724087_x_at) / RFU OASL (11726364_x_at) / Fold change /veh OASL (11726364_x_at) / RFU SOX15 (11748057_x_at) / Fold change /veh SOX15 (11748057_x_at) / RFU CD79A (11719716_a_at) / Fold change /veh CD79A (11719716_a_at) / RFU HIST1H1D (11736915_at) / Fold change /veh HIST1H1D (11736915_at) / RFU CASKIN2 (11723855_a_at) / Fold change /veh CASKIN2 (11723855_a_at) / RFU LOC730098 (11760151_x_at) / Fold change /veh LOC730098 (11760151_x_at) / RFU OR4N2 (11742367_at) / Fold change /veh OR4N2 (11742367_at) / RFU PRRT2 (11749266_a_at) / Fold change /veh PRRT2 (11749266_a_at) / RFU SNX32 (11753110_a_at) / Fold change /veh SNX32 (11753110_a_at) / RFU CDHR5 (11726645_a_at) / Fold change /veh CDHR5 (11726645_a_at) / RFU RCAN1 (11760418_a_at) / Fold change /veh RCAN1 (11760418_a_at) / RFU FAM167A (11723789_a_at) / Fold change /veh FAM167A (11723789_a_at) / RFU FAM26E (11764081_at) / Fold change /veh FAM26E (11764081_at) / RFU ISYNA1 (11749810_s_at) / Fold change /veh ISYNA1 (11749810_s_at) / RFU ACY1 (11761880_at) / Fold change /veh ACY1 (11761880_at) / RFU 11764098_at / Fold change /veh 11764098_at / RFU SAMD14 (11745864_x_at) / Fold change /veh SAMD14 (11745864_x_at) / RFU NPB (11741838_a_at) / Fold change /veh NPB (11741838_a_at) / RFU TMPRSS6 (11731388_a_at) / Fold change /veh TMPRSS6 (11731388_a_at) / RFU KRTAP10-2 (11738614_at) / Fold change /veh KRTAP10-2 (11738614_at) / RFU ARHGAP8 /// PRR5-ARHGAP8 (11727945_x_at) / Fold change /veh ARHGAP8 /// PRR5-ARHGAP8 (11727945_x_at) / RFU KRTAP5-7 /// NADSYN1 (11734609_at) / Fold change /veh KRTAP5-7 /// NADSYN1 (11734609_at) / RFU RASL12 (11751679_a_at) / Fold change /veh RASL12 (11751679_a_at) / RFU CDKN2B (11736163_a_at) / Fold change /veh CDKN2B (11736163_a_at) / RFU PRF1 (11729649_at) / Fold change /veh PRF1 (11729649_at) / RFU, ZNF638 /// ZNF638-IT1 / Fold change vs veh, ZNF638 /// ZNF638-IT1 / RFU, PANK3 / Fold change vs veh, PANK3 / RFU, SH3YL1 / Fold change vs veh, SH3YL1 / RFU, ZEB2 / Fold change vs veh, ZEB2 / RFU, NRIP1 / Fold change vs veh, NRIP1 / RFU, PTTG1IP / Fold change vs veh, PTTG1IP / RFU, CAPN2 / Fold change vs veh, CAPN2 / RFU, MED14 / Fold change vs veh, MED14 / RFU, SNORA58 / Fold change vs veh, SNORA58 / RFU, C1orf63 / Fold change vs veh, C1orf63 / RFU, LRRFIP1 / Fold change vs veh, LRRFIP1 / RFU, NDUFAF7 / Fold change vs veh, NDUFAF7 / RFU, SLC12A2 / Fold change vs veh, SLC12A2 / RFU, IBTK / Fold change vs veh, IBTK / RFU, ESF1 / Fold change vs veh, ESF1 / Fold change vs veh, TMEM50B / RFU, TAOK1 / Fold change vs veh, TAOK1 / RFU, ACBD3 / Fold change vs veh, ACBD3 / RFU, TMA16 / Fold change vs veh, TMA16 / RFU, RWDD3 / Fold change vs veh, RWDD3 / RFU, BCAT1 / Fold change vs veh, BCAT1 / RFU, EDEM3 / Fold change vs veh, EDEM3 / RFU, TMEM33 / Fold change vs veh, TMEM33 / RFU, WDR75 / Fold change vs veh, WDR75 / RFU, AHCTF1 / Fold change vs veh, AHCTF1 / RFU, TFRC / Fold change vs veh, TFRC / RFU, ZDHHC17 / Fold change vs veh, ZDHHC17 / RFU, NOM1 / Fold change vs veh, NOM1 / RFU, ARL8B / Fold change vs veh, ARL8B / RFU, ZBTB11 / Fold change vs veh, ZBTB11 / RFU, TAMM41 / Fold change vs veh, TAMM41 / RFU, KIAA1704 /// LOC100996395 / Fold change vs veh, KIAA1704 /// LOC100996395 / RFU, ING1 / Fold change vs veh, ING1 / RFU, TRMT61B / Fold change vs veh, TRMT61B / RFU, FUBP3 / Fold change vs veh, FUBP3 / RFU, TP53 / Fold change vs veh, TP53 / RFU, TNKS2 / Fold change vs veh, TNKS2 / RFU, ZFP14 / Fold change vs veh, ZFP14 / RFU, ACTR2 / Fold change vs veh, ACTR2 / RFU, PPP3R1 / Fold change vs veh, PPP3R1 / RFU, PIK3R1 / Fold change vs veh, PIK3R1 / RFU, HNRNPA1 / Fold change vs veh, HNRNPA1 / RFU, RNF170 / Fold change vs veh, RNF170 / RFU, ZNF28 / Fold change vs veh, ZNF28 / RFU, RNGTT / Fold change vs veh, RNGTT / RFU, OGT / Fold change vs veh, OGT / RFU, BRD1 / Fold change vs veh, BRD1 / RFU, MARS / Fold change vs veh, MARS / RFU, ZNF655 / Fold change vs veh, ZNF655 / RFU, FAHD1 / Fold change vs veh, FAHD1 / RFU, BDP1 / Fold change vs veh, BDP1 / RFU, LRRCC1 / Fold change vs veh, LRRCC1 / RFU, ARID1A / Fold change vs veh, ARID1A / RFU, ZNF146 / Fold change vs veh, ZNF146 / RFU, ZNF330 / Fold change vs veh, ZNF330 / RFU, GPN3 / Fold change vs veh, GPN3 / RFU, C9orf123 / Fold change vs veh, C9orf123 / RFU, N4BP2L2 / Fold change vs veh, N4BP2L2 / RFU, ARFIP1 / Fold change vs veh, ARFIP1 / RFU, FAM179B / Fold change vs veh, FAM179B / RFU, BCL10 / Fold change vs veh, BCL10 / RFU, UHRF1BP1L / Fold change vs veh, UHRF1BP1L / RFU, BET1 / Fold change vs veh, BET1 / RFU, CNOT2 / Fold change vs veh, CNOT2 / RFU, ZNF268 / Fold change vs veh, ZNF268 / Fold change vs veh, ZNF507 / RFU, DGCR2 / Fold change vs veh, DGCR2 / RFU, WDSUB1 / Fold change vs veh, WDSUB1 / Fold change vs veh, HSP90B1 /// MIR3652 / RFU, ADSS / Fold change vs veh, ADSS / RFU, GK / Fold change vs veh, GK / RFU, ZNF148 / Fold change vs veh, ZNF148 / RFU, TAF9 / Fold change vs veh, TAF9 / RFU, SLC1A5 / Fold change vs veh, SLC1A5 / RFU, SLMO2 / Fold change vs veh, SLMO2 / RFU, ABCC4 / Fold change vs veh, ABCC4 / RFU, LOC101060439 /// RAP1B / Fold change vs veh, LOC101060439 /// RAP1B / RFU, RFX7 / Fold change vs veh, RFX7 / RFU, GTPBP10 / Fold change vs veh, GTPBP10 / RFU, CNEP1R1 / Fold change vs veh, CNEP1R1 / RFU, BIVM-ERCC5 /// ERCC5 / Fold change vs veh, BIVM-ERCC5 /// ERCC5 / RFU, ILF3 / Fold change vs veh, ILF3 / RFU 11762660_at / Fold change /veh 11762660_at / RFU VCAN (11757783_s_at) / Fold change /veh VCAN (11757783_s_at) / RFU DDX43 (11728927_at) / Fold change /veh DDX43 (11728927_at) / RFU KRT8 (11758188_x_at) / Fold change /veh KRT8 (11758188_x_at) / RFU NKD1 (11759106_at) / Fold change /veh NKD1 (11759106_at) / RFU SRD5A1 (11742802_a_at) / Fold change /veh SRD5A1 (11742802_a_at) / RFU TPSAB1 /// TPSB2 (11721975_s_at) / Fold change /veh TPSAB1 /// TPSB2 (11721975_s_at) / RFU GSTM3 (11746129_a_at) / Fold change /veh GSTM3 (11746129_a_at) / RFU IL23R (11737362_x_at) / Fold change /veh IL23R (11737362_x_at) / RFU TMEM51 (11727254_a_at) / Fold change /veh TMEM51 (11727254_a_at) / RFU PIWIL2 (11732686_x_at) / Fold change /veh PIWIL2 (11732686_x_at) / RFU ORM1 (11744905_x_at) / Fold change /veh ORM1 (11744905_x_at) / RFU CCDC152 (11743942_at) / Fold change /veh CCDC152 (11743942_at) / RFU ECM1 (11717891_a_at) / Fold change /veh ECM1 (11717891_a_at) / RFU IL23R (11748794_a_at) / Fold change /veh IL23R (11748794_a_at) / RFU TNFAIP8L3 (11732012_x_at) / Fold change /veh TNFAIP8L3 (11732012_x_at) / RFU MBOAT4 (11741988_at) / Fold change /veh MBOAT4 (11741988_at) / RFU 11764193_at / Fold change /veh 11764193_at / RFU TMEM53 (11763286_at) / Fold change /veh TMEM53 (11763286_at) / RFU MAGEB2 (11727129_at) / Fold change /veh MAGEB2 (11727129_at) / RFU TMEM200A (11744735_a_at) / Fold change /veh TMEM200A (11744735_a_at) / RFU CCDC152 (11751479_a_at) / Fold change /veh CCDC152 (11751479_a_at) / RFU FAM211A (11726209_a_at) / Fold change /veh FAM211A (11726209_a_at) / RFU RGS16 (11746705_a_at) / Fold change /veh RGS16 (11746705_a_at) / RFU VCAN (11755009_s_at) / Fold change /veh VCAN (11755009_s_at) / RFU RHOB (11743442_s_at) / Fold change /veh RHOB (11743442_s_at) / RFU RGS16 (11720943_a_at) / Fold change /veh RGS16 (11720943_a_at) / RFU RGS16 (11720944_at) / Fold change /veh RGS16 (11720944_at) / RFU, VPS4B / Fold change vs veh, VPS4B / RFU, CREB1 / Fold change vs veh, CREB1 / RFU, DNAJC13 / Fold change vs veh, DNAJC13 / RFU, GNAQ / Fold change vs veh, GNAQ / RFU, CDK5R1 / Fold change vs veh, CDK5R1 / RFU, ZRANB3 / Fold change vs veh, ZRANB3 / RFU, CUL4A / Fold change vs veh, CUL4A / RFU, CCNY / Fold change vs veh, CCNY / RFU, UFL1 / Fold change vs veh, UFL1 / RFU, COG3 / Fold change vs veh, COG3 / RFU, DIAPH2 / Fold change vs veh, DIAPH2 / RFU, SKA2 / Fold change vs veh, SKA2 / RFU, AFF3 / Fold change vs veh, AFF3 / RFU, LMF1 / Fold change vs veh, LMF1 / RFU, IPO11 / Fold change vs veh, IPO11 / RFU, DFFB / Fold change vs veh, DFFB / RFU, FOXP1 / Fold change vs veh, FOXP1 / RFU, CARD8 / Fold change vs veh, CARD8 / RFU, STRN3 / Fold change vs veh, STRN3 / RFU, ADK / Fold change vs veh, ADK / RFU, RASSF2 / Fold change vs veh, RASSF2 / RFU, WIPF1 / Fold change vs veh, WIPF1 / RFU, LARP1B / Fold change vs veh, LARP1B / RFU, RASA1 / Fold change vs veh, RASA1 / RFU, RB1 / Fold change vs veh, RB1 / RFU, PPFIA1 / Fold change vs veh, PPFIA1 / RFU, MAT2A / Fold change vs veh, MAT2A / RFU, CCT5 / Fold change vs veh, CCT5 / RFU, WDR92 / Fold change vs veh, WDR92 / RFU, CUX1 / Fold change vs veh, CUX1 / RFU, TTC7A / Fold change vs veh, TTC7A / RFU, TMEM135 / Fold change vs veh, TMEM135 / RFU, DEPTOR / Fold change vs veh, DEPTOR / RFU, CPM / Fold change vs veh, CPM / RFU, DNAJB6 / Fold change vs veh, DNAJB6 / RFU, CACNA2D3 / Fold change vs veh, CACNA2D3 / RFU, DTX4 / Fold change vs veh, DTX4 / RFU, TFCP2 / Fold change vs veh, TFCP2 / RFU, GMCL1 /// GMCL1P1 / Fold change vs veh, GMCL1 /// GMCL1P1 / RFU, AEBP2 / Fold change vs veh, AEBP2 / RFU, SNHG1 /// SNORD22 /// SNORD25 /// SNORD26 /// SNORD27 /// SNORD28 /// SNORD29 /// SNORD31 / Fold change vs veh, SNHG1 /// SNORD22 /// SNORD25 /// SNORD26 /// SNORD27 /// SNORD28 /// SNORD29 /// SNORD31 / Fold change (Aza/veh), C12orf56 (ProbeSet 11735607_a_at) / Fold change (ACY-1035/veh), C12orf56 (ProbeSet 11735607_a_at) / Fold change (Aza/veh), FGFR1OP (ProbeSet 11751329_s_at) / Fold change (ACY-1035/veh), FGFR1OP (ProbeSet 11751329_s_at) / Fold change (Aza/veh), VPS36 (ProbeSet 11739960_a_at) / Fold change (ACY-1035/veh), VPS36 (ProbeSet 11739960_a_at) / RFU SYPL1 (11715823_x_at) / Fold change /veh SYPL1 (11715823_x_at) / RFU IGFBP7 (11715501_s_at) / Fold change /veh IGFBP7 (11715501_s_at) / RFU REEP3 (11722064_at) / Fold change /veh REEP3 (11722064_at) / RFU IGLL1 (11728026_x_at) / Fold change /veh IGLL1 (11728026_x_at): dose or concentration left out as unconfirmed
Conditions: ProbeSet 11717308_a_at; LIST B

## Nc1ncn([C@@H]2O[C@H](CO)[C@@H](O)[C@H]2O)c(=O)n1 [azacitidine]
  RFU, WDR75: 348.11 RFU
